According to PMC3894222 (PLoS Pathogens, 2014):

How the values were obtained:
Sm5HTR [1] = biological target: T1, Sm5HTR (Schistosoma mansoni, UniProt G4V5G4); assay: cAMP fluorescent competitive immunoassay, transfected HEK […] cells; type: cell-based; settings: 20 uM forskolin, IBMX pretreatment, 37 °C, 10 min
T1 construct: gene 5HT-1; full length, 463 residues, 52 kDa; pCI-neo; transiently transfected HEK 293 cells
T1 sequence (G4V5G4 1-463): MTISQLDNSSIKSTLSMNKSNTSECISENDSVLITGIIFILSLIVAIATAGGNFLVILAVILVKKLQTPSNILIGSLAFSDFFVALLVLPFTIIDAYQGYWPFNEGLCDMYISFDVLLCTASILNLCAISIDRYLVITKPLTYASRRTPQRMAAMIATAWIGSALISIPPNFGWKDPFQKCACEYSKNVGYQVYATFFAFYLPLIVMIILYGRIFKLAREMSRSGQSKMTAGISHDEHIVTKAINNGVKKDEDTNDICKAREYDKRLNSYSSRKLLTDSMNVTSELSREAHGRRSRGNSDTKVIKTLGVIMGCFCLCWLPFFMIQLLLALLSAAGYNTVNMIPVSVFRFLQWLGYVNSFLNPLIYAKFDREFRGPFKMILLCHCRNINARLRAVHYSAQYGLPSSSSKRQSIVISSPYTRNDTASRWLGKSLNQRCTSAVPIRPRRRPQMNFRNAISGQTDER

Sm5HTR [2] = biological target: T1, Sm5HTR; assay: as above; type: cell-based
[3] = antagonist at 100 uM against 100 uM serotonin

Compound	cAMP fluorescent competitive immunoassay, transfected HEK 293 cells (Sm5HTR [1]; agonist at 100 uM)	cAMP fluorescent competitive immunoassay, transfected HEK 293 cells (Sm5HTR [1]; [3])	also measured
O=C1CC2(CCCC2)CC(=O)N1CCCCN1CCN(c2ncccn2)CC1 [BUS, buspirone]	classical (i.e. mammalian) serotonergic agonists such as tryptamine, DPAT and buspiperone	–	–
CN1CCC(=C2c3ccccc3C=Cc3ccccc32)CC1 [CPH, cyproheptadine]	–	inhibited by co-application of common serotonergic antagonists such as cyproheptadine or mianserin	–
CCCN(CCC)C1CCc2cccc(O)c2C1 (stereo not drawn) [DPAT, 8-Hydroxy-DPAT]	classical (i.e. mammalian) serotonergic agonists such as tryptamine, DPAT and buspiperone	–	–
CN1CCN2c3ccccc3Cc3ccccc3C2C1 (stereo not drawn) [MIAN, mianserin]	–	inhibited by co-application of common serotonergic antagonists such as cyproheptadine or mianserin	–
NCCc1c[nH]c2ccccc12 [Trp, tryptamine]	classical (i.e. mammalian) serotonergic agonists such as tryptamine, DPAT and buspiperone	–	–
COc1ccc2[nH]cc(CCN)c2c1 [methyl-5HT, o-methyl-serotonin]	–	–	EC50 (Sm5HTR [2]): 72.2 nM
